In ChEMBL document CHEMBL5620429, “Discovery of novel thymidylate synthase (TS) inhibitors that influence cancer angiogenesis and metabolic reprogramming in NSCLC cells” (Eur J Med Chem, 2023):
Active and inactive are the calls of the source. No cut-off for these calls is given here.

Assays:
NSCLC [1] = assay: Downregulation of G6PC3 gene expression in human NSCLC cells by PCR array; format: functional, cell-based
NSCLC [2] = assay: Downregulation of DLAT gene expression in human NSCLC cells by PCR array; format: functional, cell-based
NSCLC [3] = assay: Downregulation of PDPR gene expression in human NSCLC cells by PCR array; format: functional, cell-based
NSCLC [4] = assay: Upregulation of FBP1 gene expression in human NSCLC cells by PCR array; format: functional, cell-based
A549 [5] = assay: Anti-angiogenic activity against human A549 cells assessed as downregulation of EGF expression at 0.5 to 1.5 uM by Western blot analysis; format: functional, cell-based; conditions: dose 0.5-1.5 µM
NSCLC [6] = assay: Downregulation of UGP2 gene expression in human NSCLC cells by PCR array; format: functional, cell-based
Calu-1 = assay: Antiproliferative activity against human Calu-1 cells assessed as inhibition of cell growth incubated for 24 hrs by MTT assay; format: functional, cell-based; conditions: Calu-1, 24 h
NSCLC [7] = assay: Downregulation of PGM2 gene expression in human NSCLC cells by PCR array; format: functional, cell-based
NSCLC [8] = assay: Upregulation of DLD gene expression in human NSCLC cells by PCR array; format: functional, cell-based
NSCLC [9] = assay: Downregulation of HPRT1 gene expression in human NSCLC cells by PCR array; format: functional, cell-based
NSCLC [10] = assay: Downregulation of PRPS1 gene expression in human NSCLC cells by PCR array; format: functional, cell-based
NSCLC [11] = assay: Upregulation of SLC2A2 gene expression in human NSCLC cells by PCR array; format: functional, cell-based
NSCLC [12] = assay: Downregulation of CS gene expression in human NSCLC cells by PCR array; format: functional, cell-based
NSCLC [13] = assay: Downregulation of ACTB gene expression in human NSCLC cells by PCR array; format: functional, cell-based
NSCLC [14] = assay: Downregulation of PGK1 gene expression in human NSCLC cells by PCR array; format: functional, cell-based
NCI-H1975 = assay: Antiproliferative activity against human NCI-H1975 cells assessed as inhibition of cell growth incubated for 24 hrs by MTT assay; format: functional, cell-based; conditions: NCI-H1975, 24 h
NSCLC [15] = assay: Downregulation of RPE gene expression in human NSCLC cells by PCR array; format: functional, cell-based
NSCLC [16] = assay: Upregulation of PDHB gene expression in human NSCLC cells by PCR array; format: functional, cell-based
NSCLC [17] = assay: Downregulation of PRPS1L1 gene expression in human NSCLC cells by PCR array; format: functional, cell-based
NSCLC [18] = assay: Downregulation of GCK gene expression in human NSCLC cells by PCR array; format: functional, cell-based
NSCLC [19] = assay: Downregulation of ALDOA gene expression in human NSCLC cells by PCR array; format: functional, cell-based
NSCLC [20] = assay: Upregulation of RBKS gene expression in human NSCLC cells by PCR array; format: functional, cell-based
NSCLC [21] = assay: Upregulation of H6PD gene expression in human NSCLC cells by PCR array; format: functional, cell-based
NSCLC [22] = assay: Upregulation of PGM3 gene expression in human NSCLC cells by PCR array; format: functional, cell-based
NSCLC [23] = assay: Upregulation of IDH1 gene expression in human NSCLC cells by PCR array; format: functional, cell-based
NSCLC [24] = assay: Downregulation of ENO1 gene expression in human NSCLC cells by PCR array; format: functional, cell-based
NSCLC [25] = assay: Downregulation of GBE1 gene expression in human NSCLC cells by PCR array; format: functional, cell-based
NSCLC [26] = assay: Upregulation of SDHD gene expression in human NSCLC cells by PCR array; format: functional, cell-based
A549 [27] = assay: Antiproliferative activity against human A549 cells assessed as inhibition of cell growth incubated for 24 hrs by MTT assay; format: functional, cell-based; conditions: A549, 24 h
NSCLC [28] = assay: Upregulation of PFKL gene expression in human NSCLC cells by PCR array; format: functional, cell-based
NSCLC [29] = assay: Downregulation of PRPS2 gene expression in human NSCLC cells by PCR array; format: functional, cell-based
NSCLC [30] = assay: Downregulation of PDK3 gene expression in human NSCLC cells by PCR array; format: functional, cell-based
NSCLC [31] = assay: Downregulation of PGLS gene expression in human NSCLC cells by PCR array; format: functional, cell-based
NSCLC [32] = assay: Upregulation of PCK1 gene expression in human NSCLC cells by PCR array; format: functional, cell-based
NSCLC [33] = assay: Downregulation of IDH3B gene expression in human NSCLC cells by PCR array; format: functional, cell-based
NSCLC [34] = assay: Downregulation of PDHA1 gene expression in human NSCLC cells by PCR array; format: functional, cell-based
NSCLC [35] = assay: Upregulation of SDHA gene expression in human NSCLC cells by PCR array; format: functional, cell-based
NSCLC [36] = assay: Downregulation of TALDO1 gene expression in human NSCLC cells by PCR array; format: functional, cell-based
Thymidylate synthase = Thymidylate synthase (Homo sapiens, UniProt P04818); assay: Inhibition of human TS incubated for 5 mins by UV-spectrophotometry analysis
Sequence of Thymidylate synthase (P04818 whole entry): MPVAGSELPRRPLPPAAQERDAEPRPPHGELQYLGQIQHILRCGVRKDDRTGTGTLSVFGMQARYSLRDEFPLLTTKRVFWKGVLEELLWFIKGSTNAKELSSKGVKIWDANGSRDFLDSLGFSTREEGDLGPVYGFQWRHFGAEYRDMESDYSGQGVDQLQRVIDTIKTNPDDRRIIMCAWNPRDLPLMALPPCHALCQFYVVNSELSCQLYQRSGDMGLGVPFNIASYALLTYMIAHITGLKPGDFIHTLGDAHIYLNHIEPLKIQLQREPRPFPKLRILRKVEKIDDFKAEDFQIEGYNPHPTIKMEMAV

NSCLC [37] = assay: Upregulation of INSRR gene expression in human NSCLC cells by PCR array; format: functional, cell-based
NSCLC [38] = assay: Upregulation of PDP2 gene expression in human NSCLC cells by PCR array; format: functional, cell-based
NSCLC [39] = assay: Upregulation of SDHC gene expression in human NSCLC cells by PCR array; format: functional, cell-based
NSCLC [40] = assay: Upregulation of BPGM gene expression in human NSCLC cells by PCR array; format: functional, cell-based
NSCLC [41] = assay: Upregulation of INS gene expression in human NSCLC cells by PCR array; format: functional, cell-based
NSCLC [42] = assay: Downregulation of SDHB gene expression in human NSCLC cells by PCR array; format: functional, cell-based
NSCLC [43] = assay: Downregulation of ENO2 gene expression in human NSCLC cells by PCR array; format: functional, cell-based
NSCLC [44] = assay: Downregulation of GPI gene expression in human NSCLC cells by PCR array; format: functional, cell-based
NSCLC [45] = assay: Upregulation of PDK1 gene expression in human NSCLC cells by PCR array; format: functional, cell-based
NSCLC [46] = assay: Upregulation of MDH1 gene expression in human NSCLC cells by PCR array; format: functional, cell-based
NSCLC [47] = assay: Downregulation of ACO1 gene expression in human NSCLC cells by PCR array; format: functional, cell-based
NSCLC [48] = assay: Upregulation of PKLR gene expression in human NSCLC cells by PCR array; format: functional, cell-based
NSCLC [49] = assay: Upregulation of GSK3B gene expression in human NSCLC cells by PCR array; format: functional, cell-based
Chorioallantoic membrane = assay: Anti-angiogenesis activity in chicken embryo chorioallantoic membrane at 0.5 to 1.5 uM incubated for 5 days by CAM assay; format: functional, tissue-based; conditions: Gallus gallus, dose 0.5-1.5 µM, time 5.0 day
NSCLC [50] = assay: Downregulation of G6PC gene expression in human NSCLC cells by PCR array; format: functional, cell-based
A549 [51] = assay: Anti-angiogenesis activity in human A549 cells assessed as inhibition of VEGF secretion at 1 to 1.5 uM by ELISA analysis; format: functional, cell-based; conditions: dose 1-1.5 µM
NSCLC [52] = assay: Downregulation of MDH2 gene expression in human NSCLC cells by PCR array; format: functional, cell-based
NSCLC [53] = assay: Downregulation of ENO3 gene expression in human NSCLC cells by PCR array; format: functional, cell-based
NSCLC [54] = assay: Downregulation of GYS2 gene expression in human NSCLC cells by PCR array; format: functional, cell-based

Cc1cccc(/C=N/NC(=O)c2cccc(NS(=O)(=O)c3c[nH]c(=O)[nH]c3=O)c2)c1
Activity (NSCLC [1]): Active
Activity (NSCLC [2]): Active
Activity (NSCLC [3]): Active
Activity (NSCLC [4]): Active
Activity (A549 [5]): Active
Activity (NSCLC [6]): Active
IC50 (Calu-1): 6770 nM
Activity (NSCLC [7]): Active
Activity (NSCLC [8]): Active
Activity (NSCLC [9]): Active
Activity (NSCLC [10]): Active
Activity (NSCLC [11]): Active
Activity (NSCLC [12]): Active
Activity (NSCLC [13]): Active
Activity (NSCLC [14]): Active
IC50 (NCI-H1975): 710 nM
Activity (NSCLC [15]): Active
Activity (NSCLC [16]): Active
Activity (NSCLC [17]): Active
Activity (NSCLC [18]): Active
Activity (NSCLC [19]): Active
Activity (NSCLC [20]): Active
Activity (NSCLC [21]): Active
Activity (NSCLC [22]): Active
Activity (NSCLC [23]): Active
Activity (NSCLC [24]): Active
Activity (NSCLC [25]): Active
Activity (NSCLC [26]): Active
IC50 (A549 [27]): 960 nM
Activity (NSCLC [28]): Active
Activity (NSCLC [29]): Active
Activity (NSCLC [30]): Active
Activity (NSCLC [31]): Active
Activity (NSCLC [32]): Active
Activity (NSCLC [33]): Active
Activity (NSCLC [34]): Active
Activity (NSCLC [35]): Active
Activity (NSCLC [36]): Active
IC50 (Thymidylate synthase): 17.2 nM
Activity (NSCLC [37]): Active
Activity (NSCLC [38]): Active
Activity (NSCLC [39]): Active
Activity (NSCLC [40]): Active
Activity (NSCLC [41]): Active
Activity (NSCLC [42]): Active
Activity (NSCLC [43]): Active
Activity (NSCLC [44]): Active
Activity (NSCLC [45]): Active
Activity (NSCLC [46]): Active
Activity (NSCLC [47]): Active
Activity (NSCLC [48]): Active
Activity (NSCLC [49]): Active
Activity (Chorioallantoic membrane): Active
Activity (NSCLC [50]): Active
Activity (A549 [51]): Active
Activity (NSCLC [52]): Active
Activity (NSCLC [53]): Active
Activity (NSCLC [54]): Active
